Data from US20250206780A1, “CYCLIC PEPTIDES AND THEIR USE FOR THE TREATMENT OF DISEASES ASSOCIATED WITH DICARBONYLS LIKE METHYLGLYOXAL” (UNIVERSITÄT HEIDELBERG, priority 2022, published 2025).
Starred links: 1 amine or outer side, 2 acyl side, 3 side chain; linkers in the order of their positions; H or OH if unused. Positions of bridges follow the written chain, without caps; N, C: chain ends. Residues, ends and D or L forms follow the SMILES beside them. Groups on a side chain read outwards from the residue. *: point of attachment. d(γGlu) = O=C(O)[C@@H](CCC(=O)[*:2])N[*:1]; C16 diacid = O=C(O)CCCCCCCCCCCCCCC(=O)*; Dap = NC[C@H](N)C(=O)O

Columns and labels:
[1] = parameters: species or system mice; conditions: mouse, in vivo
Procedure: Animals were injected with Dap3 and blood was collected into EDTA containing tubes at indicated time points with n=3 per time point. After centrifugation EDTA plasma was stored at −80° C. until analysis. Dap3 was quantified by LC MS/MS as described in section 6.
6. Detection of Dap3 and MG-Modified Dap3 by LC-MS/MS A Dap3-MG standard was prepared by incubation of Dap3 with methylglyoxal in 0.1 M phosphate buffer followed by purification by preparative HPLC. The peptide CycK(e-Hdd)R4E was employed as internal standard which was added to the standard curve and plasma samples prior to precipitation. Prior to analysis 2 parts acetonitrile were added to the plasma, vortexed and centrifuged for 10 min at 13,000 g. The supernatant was analysed using an ACQUITY UPLC I fitted with a Acquity UPLC BEH C18 column (Waters, 2.1 mm*100 mm, […]) with a pre-column (2.1×5 mm, 1.7 μm) and a Xevo TQ-XS mass spectrometer (Waters, USA). Solvent A was water+0.1% formic acid and solvent B was acetonitrile+0.1% formic acid. A linear gradient from 0-100% solvent B at a flow rate of 0.2 ml/min over 20 min and a column temperature of 30° C. was used. The detailed parameters for the quantification of Dap3, Dap3-MG and CycK(e-Hdd)R4E, are described below

[2] = Bowman et al., 1996; cited from earlier work

| plasma half-life [1] | SMILES | half-life [2] |
| --- | --- | --- |
| long plasma half-life | NC[C@H](N)C(=O)NCCCC[C@@H]1NC(=O)[C@H](CCCCNC(=O)[C@@H](N)CN)NC(=O)[C@H](CCC(=O)O)NC(=O)[C@H](CCCCNC(=O)[C@@H](N)CN)NC(=O)[C@H](CCCCNC(=O)CC[C@@H](NC(=O)CCCCCCCCCCCCCCC(=O)O)C(=O)O)NC(=O)CC[C@@H](C(=O)O)NC1=O [Dap3] (K([d(γGlu)-C16 diacid])K(Dap)EK(Dap)K(Dap)E-OH; lactam N-6) |  |
|  | N=C(N)NN [Aminoguanidine] | very short |
